Experimental data from ChEMBL document CHEMBL1201862, “PubChem BioAssay data set” (2004).
Structures can show the parent of a compound that is named as a salt. Active and inactive are the calls of the source.

Tests used:
[1] = molecular target: DNA dC->dU-editing enzyme APOBEC-3G (Homo sapiens, UniProt Q9HC16); type: functional;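 also: Dose-response counterscreen measuring inhibition of APOBEC3G DNA deaminase activity, run while confirming APOBEC3A inhibitors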
[2] = molecular target: DNA dC->dU-editing enzyme APOBEC-3A (Homo sapiens, UniProt P31941); test: Dose Response confirmation of small molecule APOBEC3A DNA Deaminase Inhibitors via a fluorescence-based single-stranded DNA deaminase assay. [Related pubchem assays (depositor defined):AID493011, AID493024]; type: functional
Chain of DNA dC->dU-editing enzyme APOBEC-3A (P31941 whole entry): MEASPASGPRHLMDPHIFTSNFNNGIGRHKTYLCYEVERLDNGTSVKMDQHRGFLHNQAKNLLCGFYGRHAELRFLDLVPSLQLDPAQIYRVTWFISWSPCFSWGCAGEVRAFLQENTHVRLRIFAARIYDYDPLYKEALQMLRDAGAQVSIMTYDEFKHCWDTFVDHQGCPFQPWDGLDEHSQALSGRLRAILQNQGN

Cytochrome P450 2C9 = Cytochrome P450 2C9 (Homo sapiens, UniProt P11712)
Chain of Cytochrome P450 2C9 (P11712 whole entry): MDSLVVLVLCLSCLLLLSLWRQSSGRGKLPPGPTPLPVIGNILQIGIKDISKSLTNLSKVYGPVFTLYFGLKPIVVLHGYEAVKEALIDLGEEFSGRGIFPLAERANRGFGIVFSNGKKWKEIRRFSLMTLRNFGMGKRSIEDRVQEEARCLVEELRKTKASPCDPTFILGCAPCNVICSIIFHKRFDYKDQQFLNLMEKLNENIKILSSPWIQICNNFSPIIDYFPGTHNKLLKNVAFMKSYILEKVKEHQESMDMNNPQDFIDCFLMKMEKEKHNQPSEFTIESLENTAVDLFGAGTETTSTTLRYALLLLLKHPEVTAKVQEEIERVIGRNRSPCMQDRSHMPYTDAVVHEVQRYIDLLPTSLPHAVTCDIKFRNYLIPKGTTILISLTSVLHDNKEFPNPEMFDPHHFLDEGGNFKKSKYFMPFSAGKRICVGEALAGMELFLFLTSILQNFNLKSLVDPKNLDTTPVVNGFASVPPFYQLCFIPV

Cytochrome P450 1A2 = molecular target: T1, Cytochrome P450 1A2 (Homo sapiens, UniProt P05177);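 also: PubChem cytochrome P450 panel assay, CYP1A2 panel member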
T1 sequence (P05177 whole entry): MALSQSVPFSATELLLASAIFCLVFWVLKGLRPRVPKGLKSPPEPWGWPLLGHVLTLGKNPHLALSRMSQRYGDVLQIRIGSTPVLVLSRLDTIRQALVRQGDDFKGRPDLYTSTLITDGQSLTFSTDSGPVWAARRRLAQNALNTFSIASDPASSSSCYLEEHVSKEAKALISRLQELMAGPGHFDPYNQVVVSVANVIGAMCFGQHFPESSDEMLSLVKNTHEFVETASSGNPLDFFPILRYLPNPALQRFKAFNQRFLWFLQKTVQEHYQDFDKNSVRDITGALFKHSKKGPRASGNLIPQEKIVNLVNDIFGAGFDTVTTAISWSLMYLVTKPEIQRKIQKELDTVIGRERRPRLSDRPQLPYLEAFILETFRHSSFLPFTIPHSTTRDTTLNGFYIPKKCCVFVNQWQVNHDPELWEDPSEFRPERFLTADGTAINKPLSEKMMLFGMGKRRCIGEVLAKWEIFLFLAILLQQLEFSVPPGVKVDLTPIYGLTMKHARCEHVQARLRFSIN

BJ [3] = test: BJ-TERT fibroblast viability loss – cell-based, RAS-independent, luminescence, dose response (AID 1933); type: functional; settings: Homo sapiens
[4] = Luminescence Cell-Based Dose Response HTS to Identify Inhibitors of 5'UTR Stem-Loop Driven Prion Protein mRNA Translation in H4 Neuroglioblastoma Cells. [Related pubchem assays: 1827 (Project Summary), 1813 (Primary HTS)]; type: functional
[5] = HEK-293T viability loss after treatment – luminescence, T-cell screen hits, cytotoxicity control for TCR NF-kB inhibitor project, dose response (AID 489026); type: functional, cell-based;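 also: cells exposed to compound about 14 hours before the viability readout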
BJ [6] = test: BJ-TERT-LT-ST fibroblast viability loss – cell-based, RAS-independent, luminescence, dose response (AID 1935); type: functional; settings: Homo sapiens;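 also: BJ fibroblasts immortalized with TERT plus LT and ST oncogenes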
BJ [7] = test: cells; type: functional, cell-based; settings: Homo sapiens
[8] = luciferase reporter signal suppression in cells – H4 neuroglioma cells, luminescence, dose response (AID 1990); type: functional, cell-based
[9] = alpha-synuclein stem-loop luciferase translation blockers – H4 neuroglioma cells, luminescence, confirmation (AID 1988); type: functional, cell-based
[10] = DRD fibroblast viability loss – cell-based, non-viral oncogenic, luminescence, dose response (AID 1934); type: functional; settings: Homo sapiens
Escherichia coli = test: microbe, parasite or virus in culture
Fatty acid synthase [11] = molecular target: T2, Fatty acid synthase (Homo sapiens, UniProt P49327); test: inhibition of human FAS-TE enzyme activity – biochemical, endpoint fluorescence intensity, uHTS hits, dose response (AID 624327); type: functional;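 also: fluorescence from hydrolysis of an O-methyl fluorescein acyl ester substrate by the enzyme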
T2 sequence (P49327 whole entry): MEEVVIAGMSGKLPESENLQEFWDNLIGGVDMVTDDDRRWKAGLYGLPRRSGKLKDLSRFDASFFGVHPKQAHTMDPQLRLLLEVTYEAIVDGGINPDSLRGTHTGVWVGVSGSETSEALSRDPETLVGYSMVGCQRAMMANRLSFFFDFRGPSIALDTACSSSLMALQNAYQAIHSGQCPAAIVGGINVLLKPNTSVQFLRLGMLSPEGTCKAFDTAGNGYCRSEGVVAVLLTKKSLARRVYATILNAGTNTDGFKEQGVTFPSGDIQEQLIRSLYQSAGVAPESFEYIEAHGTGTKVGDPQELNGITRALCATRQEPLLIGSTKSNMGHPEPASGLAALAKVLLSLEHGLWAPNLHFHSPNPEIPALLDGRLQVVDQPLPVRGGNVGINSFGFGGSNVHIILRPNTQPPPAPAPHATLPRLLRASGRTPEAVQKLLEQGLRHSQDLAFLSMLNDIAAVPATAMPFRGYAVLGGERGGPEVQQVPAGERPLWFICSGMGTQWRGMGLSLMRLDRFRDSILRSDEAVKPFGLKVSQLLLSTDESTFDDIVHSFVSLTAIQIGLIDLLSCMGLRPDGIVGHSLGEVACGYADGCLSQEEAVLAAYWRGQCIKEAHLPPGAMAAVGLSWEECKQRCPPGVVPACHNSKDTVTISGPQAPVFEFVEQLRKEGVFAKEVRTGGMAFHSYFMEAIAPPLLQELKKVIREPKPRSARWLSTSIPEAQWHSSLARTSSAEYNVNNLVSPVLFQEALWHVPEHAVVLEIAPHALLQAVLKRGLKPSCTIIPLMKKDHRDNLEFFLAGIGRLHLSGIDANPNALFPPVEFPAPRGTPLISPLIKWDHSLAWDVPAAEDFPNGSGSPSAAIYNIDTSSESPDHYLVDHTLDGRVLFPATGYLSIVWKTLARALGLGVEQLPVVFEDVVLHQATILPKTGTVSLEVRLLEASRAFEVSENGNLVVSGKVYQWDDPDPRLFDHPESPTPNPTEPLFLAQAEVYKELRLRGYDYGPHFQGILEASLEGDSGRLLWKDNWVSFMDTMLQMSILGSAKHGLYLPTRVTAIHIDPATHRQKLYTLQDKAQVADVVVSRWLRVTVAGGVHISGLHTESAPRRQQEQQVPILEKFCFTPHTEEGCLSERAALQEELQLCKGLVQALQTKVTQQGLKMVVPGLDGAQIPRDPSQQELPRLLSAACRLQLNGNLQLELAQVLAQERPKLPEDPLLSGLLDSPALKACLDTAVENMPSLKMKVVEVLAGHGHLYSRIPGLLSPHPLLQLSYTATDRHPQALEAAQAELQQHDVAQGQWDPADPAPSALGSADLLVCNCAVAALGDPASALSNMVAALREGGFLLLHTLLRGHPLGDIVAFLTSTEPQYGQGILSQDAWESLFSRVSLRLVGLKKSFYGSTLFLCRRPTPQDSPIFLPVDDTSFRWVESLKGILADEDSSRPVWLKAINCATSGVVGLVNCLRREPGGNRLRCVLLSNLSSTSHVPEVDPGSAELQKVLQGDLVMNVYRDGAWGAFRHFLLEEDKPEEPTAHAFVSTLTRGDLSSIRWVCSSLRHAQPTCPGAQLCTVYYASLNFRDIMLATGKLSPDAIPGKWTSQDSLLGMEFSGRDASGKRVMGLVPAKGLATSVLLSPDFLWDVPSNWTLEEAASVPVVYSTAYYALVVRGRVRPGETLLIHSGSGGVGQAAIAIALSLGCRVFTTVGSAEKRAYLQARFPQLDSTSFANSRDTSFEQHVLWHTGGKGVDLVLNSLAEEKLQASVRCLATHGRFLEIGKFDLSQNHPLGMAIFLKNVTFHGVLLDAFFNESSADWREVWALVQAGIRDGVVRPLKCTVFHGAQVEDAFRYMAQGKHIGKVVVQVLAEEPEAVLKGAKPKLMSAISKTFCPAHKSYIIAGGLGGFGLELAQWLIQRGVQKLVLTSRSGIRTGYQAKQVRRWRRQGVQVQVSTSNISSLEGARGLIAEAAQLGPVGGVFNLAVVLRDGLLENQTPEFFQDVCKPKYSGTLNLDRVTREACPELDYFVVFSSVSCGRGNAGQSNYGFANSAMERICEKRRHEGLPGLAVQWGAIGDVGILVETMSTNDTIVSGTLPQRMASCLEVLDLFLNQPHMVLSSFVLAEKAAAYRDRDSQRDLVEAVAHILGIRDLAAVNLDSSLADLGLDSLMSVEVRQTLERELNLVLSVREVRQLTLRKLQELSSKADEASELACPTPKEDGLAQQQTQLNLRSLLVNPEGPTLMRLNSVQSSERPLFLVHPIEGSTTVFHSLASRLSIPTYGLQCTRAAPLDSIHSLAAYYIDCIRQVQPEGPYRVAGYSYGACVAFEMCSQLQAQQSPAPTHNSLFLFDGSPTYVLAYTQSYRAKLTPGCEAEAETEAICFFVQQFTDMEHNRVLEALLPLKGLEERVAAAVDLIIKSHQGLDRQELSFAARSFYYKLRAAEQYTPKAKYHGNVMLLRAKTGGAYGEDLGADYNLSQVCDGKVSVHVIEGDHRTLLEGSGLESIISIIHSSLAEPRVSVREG

Fatty acid synthase [12] = molecular target: T2, Fatty acid synthase; test: inhibition of human FAS-TE enzyme activity – biochemical, kinetic fluorescence intensity, dose response (AID 624326); type: functional;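 also: rate of fluorescence rise from hydrolysis of a fluorogenic O-methyl fluorescein ester substrate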
[13] = molecular target: T3, Carboxy-terminal domain RNA polymerase II polypeptide A small phosphatase 1 (Homo sapiens, UniProt Q9GZU7); test: CTDSP1 inhibitors, concentration-response, biochemical, absorbance readout, ultra-high-throughput screen actives (AID 540297); type: functional
T3 sequence (Q9GZU7 whole entry): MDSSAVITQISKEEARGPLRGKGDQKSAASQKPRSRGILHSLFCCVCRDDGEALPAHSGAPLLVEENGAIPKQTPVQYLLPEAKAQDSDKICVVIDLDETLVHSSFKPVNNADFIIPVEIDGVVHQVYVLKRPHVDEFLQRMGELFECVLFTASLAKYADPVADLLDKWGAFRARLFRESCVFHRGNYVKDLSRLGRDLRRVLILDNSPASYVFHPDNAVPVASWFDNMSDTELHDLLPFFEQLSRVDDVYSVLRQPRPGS

Genome polyprotein = Genome polyprotein (dengue virus type 2, UniProt P29990); test: flavivirus cap methylation enzyme inhibition – biochemical, confirmation dose response, primary screen (AID 588689); type: functional
Chain of Genome polyprotein (P29990 2492-3391 limits assumed): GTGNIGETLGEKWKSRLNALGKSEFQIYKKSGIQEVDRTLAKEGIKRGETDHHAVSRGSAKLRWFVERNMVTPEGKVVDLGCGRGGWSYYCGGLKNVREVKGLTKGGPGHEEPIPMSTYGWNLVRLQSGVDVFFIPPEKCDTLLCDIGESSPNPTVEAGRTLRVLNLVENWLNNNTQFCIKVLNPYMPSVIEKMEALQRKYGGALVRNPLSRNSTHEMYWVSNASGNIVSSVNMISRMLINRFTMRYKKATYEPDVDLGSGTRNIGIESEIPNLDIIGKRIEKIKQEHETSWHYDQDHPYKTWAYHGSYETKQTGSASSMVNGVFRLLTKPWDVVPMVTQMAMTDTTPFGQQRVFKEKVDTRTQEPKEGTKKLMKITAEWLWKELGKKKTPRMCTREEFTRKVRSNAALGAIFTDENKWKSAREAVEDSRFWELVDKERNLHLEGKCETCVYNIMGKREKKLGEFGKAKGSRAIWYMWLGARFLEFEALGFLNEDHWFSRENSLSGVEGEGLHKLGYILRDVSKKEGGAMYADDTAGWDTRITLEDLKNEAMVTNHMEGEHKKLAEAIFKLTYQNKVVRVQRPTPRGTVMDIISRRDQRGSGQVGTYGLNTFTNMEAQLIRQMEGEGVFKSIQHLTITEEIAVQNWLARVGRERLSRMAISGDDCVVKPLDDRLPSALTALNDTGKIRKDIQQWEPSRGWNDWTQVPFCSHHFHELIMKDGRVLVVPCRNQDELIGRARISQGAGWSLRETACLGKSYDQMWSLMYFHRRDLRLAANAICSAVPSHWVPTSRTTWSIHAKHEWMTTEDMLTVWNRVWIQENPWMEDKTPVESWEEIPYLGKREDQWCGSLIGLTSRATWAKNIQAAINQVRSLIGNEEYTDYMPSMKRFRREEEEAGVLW

Cytochrome P450 2D6 = Cytochrome P450 2D6 (Homo sapiens, UniProt P10635);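 also: CYP2D6 member of a cytochrome P450 panel assay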
Cytochrome P450 2C19 = Cytochrome P450 2C19 (Homo sapiens, UniProt P33261); test: Cytochrome panel assay with activity outcomes. Panel member name: p450-cyp2c19 Compounds with AC50 equal or less than 10 uM are considered active; type: functional; settings: read-out: AC50
Chain of Cytochrome P450 2C19 (P33261 whole entry): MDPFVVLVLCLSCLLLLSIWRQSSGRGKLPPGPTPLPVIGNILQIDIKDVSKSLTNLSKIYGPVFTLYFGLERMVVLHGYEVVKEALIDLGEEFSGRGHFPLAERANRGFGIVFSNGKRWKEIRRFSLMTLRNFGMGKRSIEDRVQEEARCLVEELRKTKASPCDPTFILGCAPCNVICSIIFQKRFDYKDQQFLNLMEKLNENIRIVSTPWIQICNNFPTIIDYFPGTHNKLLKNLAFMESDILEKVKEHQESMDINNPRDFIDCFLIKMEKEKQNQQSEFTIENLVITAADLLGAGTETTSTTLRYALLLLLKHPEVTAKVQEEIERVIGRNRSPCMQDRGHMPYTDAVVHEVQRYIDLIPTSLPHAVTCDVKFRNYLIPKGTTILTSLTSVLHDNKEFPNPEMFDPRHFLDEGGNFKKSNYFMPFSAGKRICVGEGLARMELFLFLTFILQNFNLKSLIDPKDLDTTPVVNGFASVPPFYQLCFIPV

Cytochrome P450 3A4 = Cytochrome P450 3A4 (Homo sapiens, UniProt P08684);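 also: CYP3A4 tested as one member of a cytochrome P450 panel screen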
Vero = test: cells; type: functional; settings: Chlorocebus sabaeus
[14] = molecular target: T4, Calpain-2 catalytic subunit (Sus scrofa, UniProt P43367); test: m-calpain protease blockers, concentration series – biochemical, fluorogenic peptide substrate, dose response (AID 1420); type: functional
T4 sequence (P43367 whole entry): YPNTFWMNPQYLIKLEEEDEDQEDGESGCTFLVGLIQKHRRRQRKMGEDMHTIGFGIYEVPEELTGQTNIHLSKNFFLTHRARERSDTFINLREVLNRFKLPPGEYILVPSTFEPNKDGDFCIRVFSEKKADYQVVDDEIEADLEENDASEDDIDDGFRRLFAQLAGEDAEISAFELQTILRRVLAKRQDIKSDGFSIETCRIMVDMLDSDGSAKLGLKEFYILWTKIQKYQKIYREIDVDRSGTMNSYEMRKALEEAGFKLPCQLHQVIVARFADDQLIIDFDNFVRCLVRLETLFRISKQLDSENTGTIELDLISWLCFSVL

INS1 = test: INS-1E survival protection against cytokine death – cell-based, luminescence, retest, dose response (AID 449756); type: functional; settings: Rattus norvegicus;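 also: cell death triggered by IL-1 beta plus TNF-alpha plus IFN-gamma mixture; protective hits raise ATP signal compared with cytokine alone wells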
[15] = NIH3T3 cell viability loss – ATP luminescence, mouse fibroblasts, counter-screen, dose response (AID 2010); type: functional, cell-based;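 also: cells exposed to compound for about 90 hours before reading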
[16] = Trypanosoma cruzi growth suppression in host cells – NIH3T3 host cells, beta-gal luminescence, confirmation (AID 2044); type: functional, cell-based;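 also: intracellular parasites grown in NIH/3T3 mouse fibroblasts as host cells; luminescent beta-galactosidase reporter signal from transgenic T. cruzi replicating inside host cells; inhibitors lower the luminescence signal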
[17] = viability of PTEN-deleted HCT116 cells – cell-based, HCT116 PTEN knockout, dose response (AID 1047); type: functional;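 also: HCT116 colon tumor cells with PTEN knocked out; cells exposed to compound for 60 hours before readout; potency for loss of cell viability measured by luminescence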
[18] = viability of HCT116 lacking mutant beta-catenin – cell-based, human colon tumor, dose response (AID 1045); type: functional;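 also: HCT116 colon tumor cells with beta catenin knocked out; cells exposed to compound for 60 hours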

Chain of DNA dC->dU-editing enzyme APOBEC-3G (Q9HC16 whole entry): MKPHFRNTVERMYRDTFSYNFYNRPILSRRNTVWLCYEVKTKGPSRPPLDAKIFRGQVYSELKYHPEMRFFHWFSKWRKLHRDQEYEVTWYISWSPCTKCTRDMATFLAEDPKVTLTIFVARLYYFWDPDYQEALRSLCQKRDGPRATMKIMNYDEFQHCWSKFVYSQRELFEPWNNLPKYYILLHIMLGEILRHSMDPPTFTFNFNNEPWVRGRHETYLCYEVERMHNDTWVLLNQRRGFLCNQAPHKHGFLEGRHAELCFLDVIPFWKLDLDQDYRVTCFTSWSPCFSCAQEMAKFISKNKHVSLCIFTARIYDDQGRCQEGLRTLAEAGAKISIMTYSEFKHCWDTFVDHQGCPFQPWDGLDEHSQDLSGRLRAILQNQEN

CC(C)(C)C1CCC(OC(=O)C[N+]2(C)CCCC2)CC1 (stereo not drawn)
IC50 [1]: 3.36 µM (active)
IC50 [2]: 2.96 µM (active)

Cc1cc(=O)c2ccccc2[nH]1
AC50 (Cytochrome P450 2C9): inconclusive
AC50 (Cytochrome P450 1A2): 25.1 µM (inconclusive)

CCOc1ccccc1NC(=O)Cn1nnc(C(=O)NCc2ccco2)c1N
EC50 (BJ [3]): 2.66 µM (inconclusive)
EC50 [4]: 0.134 µM (active)
IC50 [5]: > 80 µM (inactive)
EC50 (BJ [6]): 1.81 µM (inconclusive)
EC50 (BJ [7]): 3.17 µM (active)
EC50 [8]: 0.216 µM (active)
EC50 [9]: 0.109 µM (active)
EC50 [10]: 2.65 µM (active)

CCOC(=O)CNC(=O)c1ccccc1
AC50 (Escherichia coli): 21 µM (active)

O=[N+]([O-])c1cccc(OCCN2CCC(Cc3ccccc3)CC2)c1
IC50 (Fatty acid synthase [11]): 5.3 µM (active)
IC50 (Fatty acid synthase [12]): 4.72 µM (active)

Cc1nc(NC(=O)/C=C/c2ccccc2)sc1C(=O)N(C)C
AC50 (Escherichia coli): 43.6 µM (active)

O=[N+]([O-])c1ccc([CH+][N-]NC(=S)N[N-][CH+]c2ccc([N+](=O)[O-])cc2)cc1
IC50 [13]: 4.17 µM (active)

COCCOc1ccc(C(F)(F)F)cc1NC(=O)Cc1ccc(S(=O)(=O)N2CCOCC2)s1
IC50 (Fatty acid synthase [11]): 6.76 µM (active)
IC50 (Fatty acid synthase [12]): 8.23 µM (active)

Cc1nn(C)cc1CNC(=O)CCC(=O)O
AC50 (Cytochrome P450 2C9): inconclusive

CC(OC(=O)c1ccc(Cl)c([N+](=O)[O-])c1)C(=O)N1CCN(Cc2ccccc2)CC1 (stereo not drawn)
IC50 (Fatty acid synthase [11]): 6.15 µM (active)
IC50 (Fatty acid synthase [12]): 3.36 µM (active)

O=C1/C(=C/c2ccc(F)cc2)SC(=S)N1NS(=O)(=O)c1ccccc1
IC50 (Genome polyprotein): 36.7 µM (active)

CC(C)COCC1CC2(CC(C)(c3csc(N)n3)OC2=O)C(=O)O1 (stereo not drawn)
AC50 (Cytochrome P450 2C9): inconclusive

COc1ccc(OC)c(/C=N/NC(=O)c2csc3ccccc23)c1
AC50 (Cytochrome P450 2C9): inconclusive
AC50 (Cytochrome P450 2D6): 20 µM (inconclusive)

O=C(Cc1ccccc1)Nc1ccccc1N1CCOCC1
AC50 (Cytochrome P450 2C9): inconclusive
AC50 (Cytochrome P450 2C19): 8.91 µM (inconclusive)
AC50 (Cytochrome P450 3A4): 6.31 µM (inconclusive)
AC50 (Cytochrome P450 1A2): 6.31 µM (inconclusive)

CCn1cc(C(=O)O)c(=O)c2cc(F)c(N3CCN(C)CC3)cc21 [PEFLOXACIN MESYLATE]
AC50 (Escherichia coli): 1.83 µM (active)

CCC(C)N1C(=O)/C(=C\c2cc3c4c(c2)CCCN4CCC3)C(=O)NC1=S (stereo not drawn)
CC50 (Vero): > 25 µM (active)

CCCC(=O)Nc1ccc(Cl)c(NC(=S)NC(=O)c2cc3ccccc3o2)c1
IC50 [14]: > 50 µM (not active)

Cc1cc(C)nc(N=C(N)Nc2ccc(S(=O)(=O)O)cc2)n1
IC50 [14]: < 0.4 µM (not active)

COc1ccc(CCNCC(O)COc2c(C)cccc2C)cc1OC (stereo not drawn)
AC50 (Escherichia coli): > 150 µM (inactive)

CSc1ccccc1NC(=O)CN(C)CC(=O)c1[nH]c(C)c(C(C)=O)c1C
IC50 [1]: 18.9 µM (active)
IC50 [2]: 6.83 µM (active)

O=C(NCCc1ccccc1)/C(=C\c1cccc([N+](=O)[O-])c1)NC(=O)c1ccco1
IC50 (Fatty acid synthase [11]): 3.04 µM (active)
IC50 (Fatty acid synthase [12]): 4.22 µM (active)

CC1CCCC(NC(=O)CCn2c(=O)oc3ccccc32)C1C (stereo not drawn)
AC50 (Cytochrome P450 2C9): inconclusive
AC50 (Cytochrome P450 2C19): 4.47 µM (inconclusive)

Cn1nc(C(=O)Nc2ccc(S(=O)(=O)N3CCCCC3)cc2)c2ccccc2c1=O
IC50 [14]: > 50 µM (not active)

CN(CC(=O)Nc1ccc(N2CCOCC2)cc1)CC(=O)Nc1ccc(N2CCOCC2)cc1
IC50 [14]: 0.655 µM (not active)

O=C(Nc1ccc(-c2nc3ncccc3o2)cc1)c1ccco1
AC50 (Escherichia coli): 30.5 µM (active)

C#CCOc1c(Br)cc(/C=C2/C(=O)ON=C2C)cc1OCC
IC50 (Genome polyprotein): 84.7 µM (active)

COc1ccc(C(=O)N(C)c2c(C)n(C)n(-c3ccccc3)c2=O)cc1OC
IC50 [14]: 18.1 µM (not active)

CC[n+]1ccc(/C=C/c2c[nH]c3ccccc23)cc1
AC50 (INS1): 5.79 µM (active)
EC50 [15]: > 60 µM (not active)
EC50 [16]: 0.839 µM (active)
IC50 [1]: 12.3 µM (active)
IC50 [2]: 5.16 µM (active)

Cc1cc(Cl)ccc1OCCCC(=O)N1CCN(C)CC1
AC50 (Cytochrome P450 2C9): inconclusive
AC50 (Cytochrome P450 2D6): 14.1 µM (inconclusive)
AC50 (Cytochrome P450 1A2): 15.8 µM (inconclusive)

CCn1c(C)nc2cc(S(=O)(=O)C(F)(F)C(F)C(F)(F)F)ccc21 (stereo not drawn)
IC50 [14]: 3.91 µM (active)

COc1ccc(NC(C)=O)cc1NC(=O)CN1CCN(C2c3ccccc3-c3ccccc32)CC1
EC50 [4]: > 120 µM (not active)
EC50 [8]: > 120 µM (not active)
EC50 [9]: 14.7 µM (active)
CC50 (Vero): 19.3 µM (active)

O=C(/C=C/c1ccco1)OCC(=O)N1CCCCC1
IC50 [1]: 35.9 µM (active)
IC50 [13]: 5.75 µM (active)
IC50 [2]: 19.5 µM (active)

Cn1nc(C(=O)Nc2ccc(-n3cnnn3)cc2)c2ccccc2c1=O
IC50 [13]: 25.7 µM (active)

CN(C)c1ncc2ncc(=O)n(CCC#N)c2n1
AC50 (Cytochrome P450 2C9): inconclusive

CC/N=C1\S/C(=C\c2cn(C(C)=O)nc2-c2ccccc2)C(=O)N1CC
CC50 (Vero): 24.8 µM (active)

COc1cc2c3c(c1)-c1c(sn(-c4cc(OC)ccc4OC)c1=S)C(C)(C)N3C(=O)C2=O
IC50 (Genome polyprotein): 61.9 µM (active)
EC50 [17]: 42.3 µM (active)
EC50 [18]: 51 µM (active)
